From US8648058B2, “Diazeniumdiolate cyclopentyl derivatives” (Merck Sharp & Dohme Corp., priority 2010, dated 2014) come the findings set out here.

The test deals with Male beagle dogs. The experiment in a line: canine telemetry protocol for blood pressure reduction efficacy. The test is classed as in vivo. Particulars: 3 mg/kg dose, oral gavage, telemetered male beagle dogs; for ΔPP (mm Hg) 1-6 h / ΔPP (mm Hg) 6-12 h / ΔPP (mm Hg) 12-18 h: change from baseline in pulse pressure; for ΔSBP (mm Hg) 1-6 h / ΔSBP (mm Hg) 6-12 h / ΔSBP (mm Hg) 12-18 h: change from baseline in systolic blood pressure. As to the method: Compounds of the invention were evaluated for blood pressure reduction efficacy using the following canine telemetry protocol described below.
Male beagle dogs (approximately 1-3 years old) with a body weight of between 10 and 16 kg were surgically implanted with DSI radiotelemetry devices (model: TL11M2-D70-PCT). Briefly, under an inhalant anesthesia, isoflurane/oxygen mixture (1-3.5%/to effect), the body of the telemetry device was positioned and secured intra-abdominally. Subsequently, the arterial catheter of the telemetry device was passed subcutaneously to the inguinal area and introduced into the femoral artery and advanced to the level of the descending aorta. The catheter was secured with 2-0 silk ligatures. The muscle and underlying fascia was closed over the catheter using absorbable suture and the skin was closed using non-absorbable suture. The animals were allowed a minimum recovery period of 2 weeks between surgery and the evaluation of test compounds.
Compound evaluation consisted of a 3 day paradigm at a 3 mg/kg dose. On the first day, no compounds were administered during a 24 hour period of baseline data collection. Blood pressure and heart rate data were collected continuously for one minute periods at 10 minute intervals. On the days of compound administration half the animals received test article with the other half receiving the vehicle used for compound formulation. All test materials were administered by oral gavage in a volume of 1 mL/kg. Data are expressed either as raw values (mm Hg or beats per minute) or as the change from baseline (average value for about 12 hours in low activity period prior to dosing). Change is SBP (systolic blood pressure) and PP (pulse pressure) over time is shown below: […]

As for `CCN(/[N+]([O-])=N/O[C@@H]1CC[C@@H](C(=O)O)C1)C(C)(C)C` [Example 1, (1R,3R)-3-({[(1Z)-2-tert-butyl-2-ethyl-1-oxido-1λ^5-diazan-1-ylidene]amino}oxy)cyclopentanecarboxylic acid], the “ΔPP (mm Hg) 1-6 h” value was −7 mm Hg, the “ΔPP (mm Hg) 6-12 h” value is −7 mm Hg, the “ΔPP (mm Hg) 12-18 h” value is −5 mm Hg and the “ΔSBP (mm Hg) 1-6 h” value was −12 mm Hg. The “ΔSBP (mm Hg) 6-12 h” value is recorded as −9 mm Hg and the “ΔSBP (mm Hg) 12-18 h” value is on record as −7 mm Hg.

For `CCCN(/[N+]([O-])=N/O[C@@H]1CC[C@@H](C(=O)O)C1)C(C)(C)C` [Example 7, (1R,3R)-3-({[(1Z)-2-tert-butyl-2-propyl-1-oxido-1λ^5-diazan-1-ylidene]amino}oxy)cyclopentanecarboxylic acid], the “ΔPP (mm Hg) 1-6 h” value is listed as −4 mm Hg, the “ΔPP (mm Hg) 6-12 h” value was −9 mm Hg, the “ΔPP (mm Hg) 12-18 h” value is reported as −8 mm Hg and the “ΔSBP (mm Hg) 1-6 h” value is given as −9 mm Hg. The “ΔSBP (mm Hg) 6-12 h” value is on record as −11 mm Hg and the “ΔSBP (mm Hg) 12-18 h” value was −10 mm Hg.

For the compound `CCN(/[N+]([O-])=N/O[C@@H]1CC[C@H](C(=O)O)C1)C(C)(C)C` [Example 18, (1S,3R)-3-({[(1Z)-2-tert-butyl-2-ethyl-1-oxido-1λ^5-diazan-1-ylidene]amino}oxy)cyclopentanecarboxylic acid], the “ΔPP (mm Hg) 1-6 h” value is listed as −14 mm Hg, the “ΔPP (mm Hg) 6-12 h” value is −10 mm Hg, the “ΔPP (mm Hg) 12-18 h” value was −6 mm Hg and the “ΔSBP (mm Hg) 1-6 h” value is −18 mm Hg. Besides, the “ΔSBP (mm Hg) 6-12 h” value is −10 mm Hg and the “ΔSBP (mm Hg) 12-18 h” value was −4 mm Hg.
